The source made the active and inactive calls. No cut-off for these calls is given here.
Legend:
HL-60(TB) = assay: Growth inhibition of human HL-60(TB) cells incubated for 48 hrs by sulforhodamine B assay; type: functional; details: HL-60, 48 h; for TGI: read-out: pTGI (converted)
K562 [1] = assay: Growth inhibition of human K562 cells incubated for 48 hrs by sulforhodamine B assay; type: functional; details: K562, 48 h; for CC50: read-out: pLC50 (the source's name) (converted); for TGI: read-out: pTGI
MOLT-4 [2] = assay: Growth inhibition of human MOLT4 cells incubated for 48 hrs by sulforhodamine B assay; type: functional; details: MOLT-4, 48 h; for TGI: read-out: pTGI (converted)
RPMI-8226 = assay: Growth inhibition of human RPMI8226 cells incubated for 48 hrs by sulforhodamine B assay; type: functional; details: RPMI-8226, 48 h; for CC50: read-out: pLC50 (the source's name) (converted); for TGI: read-out: pTGI (converted)
HOP-92 = assay: Growth inhibition of human HOP92 cells incubated for 48 hrs by sulforhodamine B assay; type: functional; details: HOP-92, 48 h; for CC50: read-out: pLC50 (the source's name) (converted); for TGI: read-out: pTGI (converted)
NCI-H23 = assay: Growth inhibition of human NCI-H23 cells incubated for 48 hrs by sulforhodamine B assay; type: functional; details: NCI-H23, 48 h; for CC50: read-out: pLC50 (the source's name) (converted); for TGI: read-out: pTGI (converted)
HCC 2998 = assay: Growth inhibition of human HCC2998 cells incubated for 48 hrs by sulforhodamine B assay; type: functional; details: HCC 2998, 48 h; for CC50: read-out: pLC50 (the source's name) (converted); for TGI: read-out: pTGI (converted)
HCT-15 = assay: Growth inhibition of human HCT15 cells incubated for 48 hrs by sulforhodamine B assay; type: functional; details: HCT-15, 48 h; for CC50: read-out: pLC50 (the source's name) (converted); for TGI: read-out: pTGI (converted)
KM12 = assay: Growth inhibition of human KM12 cells incubated for 48 hrs by sulforhodamine B assay; type: functional; details: KM12, 48 h; for CC50: read-out: pLC50 (the source's name) (converted); for TGI: read-out: pTGI (converted)
M14 = assay: Growth inhibition of human M14 cells incubated for 48 hrs by sulforhodamine B assay; type: functional; details: M14, 48 h; for CC50: read-out: pLC50 (the source's name) (converted); for TGI: read-out: pTGI (converted)
MDA-MB-435 = assay: Growth inhibition of human MDA-MB-435 cells incubated for 48 hrs by sulforhodamine B assay; type: functional; details: MDA-MB-435, 48 h; for CC50: read-out: pLC50 (the source's name) (converted); for TGI: read-out: pTGI (converted)
SK-MEL-28 = assay: Growth inhibition of human SK-MEL-28 cells incubated for 48 hrs by sulforhodamine B assay; type: functional; details: SK-MEL-28, 48 h; for CC50: read-out: pLC50 (the source's name) (converted); for TGI: read-out: pTGI (converted)
SK-MEL-5 = assay: Growth inhibition of human SK-MEL-5 cells incubated for 48 hrs by sulforhodamine B assay; type: functional; details: SK-MEL-5, 48 h; for CC50: read-out: pLC50 (the source's name) (converted); for TGI: read-out: pTGI (converted)
OVCAR-3 = assay: Growth inhibition of human OVCAR3 cells incubated for 48 hrs by sulforhodamine B assay; type: functional; details: OVCAR-3, 48 h; for CC50: read-out: pLC50 (the source's name) (converted); for TGI: read-out: pTGI (converted)
OVCAR-4 = assay: Growth inhibition of human OVCAR4 cells incubated for 48 hrs by sulforhodamine B assay; type: functional; details: OVCAR-4, 48 h; for CC50: read-out: pLC50 (the source's name) (converted); for TGI: read-out: pTGI (converted)
ACHN = assay: Growth inhibition of human ACHN cells incubated for 48 hrs by sulforhodamine B assay; type: functional; details: for TGI: read-out: pTGI (converted)
SN12C = assay: Growth inhibition of human SN12C cells incubated for 48 hrs by sulforhodamine B assay; type: functional; details: for CC50: read-out: pLC50 (the source's name) (converted); for TGI: read-out: pTGI (converted)
MCF7 = assay: Growth inhibition of human MCF7 cells incubated for 48 hrs by sulforhodamine B assay; type: functional; details: MCF7, 48 h; for TGI: read-out: pTGI (converted)
MDA-MB-231 = assay: Growth inhibition of human MDA-MB-231/ATCC cells incubated for 48 hrs by sulforhodamine B assay; type: functional; details: MDA-MB-231, 48 h; for CC50: read-out: pLC50 (the source's name) (converted); for TGI: read-out: pTGI (converted)
Hs-578T = assay: Growth inhibition of human Hs578T cells incubated for 48 hrs by sulforhodamine B assay; type: functional; details: for CC50: read-out: pLC50 (the source's name) (converted); for TGI: read-out: pTGI (converted)
MDA-MB-468 = assay: Growth inhibition of human MDA-MB-468 cells incubated for 48 hrs by sulforhodamine B assay; type: functional; details: MDA-MB-468, 48 h; for CC50: read-out: pLC50 (the source's name) (converted); for TGI: read-out: pTGI (converted)
K562 [3] = assay: Growth inhibition of human K562 cells at 10^-5 M incubated for 48 hrs by sulforhodamine B assay relative to control; type: functional; details: K562, 48 h, read-out: GI
MOLT-4 [4] = assay: Growth inhibition of human MOLT4 cells at 10^-5 M incubated for 48 hrs by sulforhodamine B assay relative to control; type: functional; details: MOLT-4, 48 h, read-out: GI
NCI-H460 = assay: Growth inhibition of human NCI-H460 cells at 10^-5 M cells incubated for 48 hrs by sulforhodamine B assay relative to control; type: functional
OVCAR-5 = assay: Growth inhibition of human OVCAR5 cells at 10^-5 M incubated for 48 hrs by sulforhodamine B assay relative to control; type: functional; details: OVCAR-5, 48 h, read-out: GI
HT-29 = assay: Growth inhibition of human HT-29 cells at 10^-5 M incubated for 48 hrs by sulforhodamine B assay relative to control; type: functional; details: HT-29, 48 h, read-out: GI
C6 [5] = assay: Induction of morphological changes in rat C6 cells assessed as increase in total length of processes measured after 24 hrs by inverted microscopy analysis relative to control; type: functional
C6 [6] = assay: Cell cycle arrest in rat C6 cells assessed as decrease in cell population at G2/M phase measured after 24 hrs by propidium iodide staining based flow cytometry analysis; type: functional
Dihydrofolate reductase = biological target: T1, Dihydrofolate reductase (Homo sapiens, UniProt P00374); assay: Inhibition of human dihydrofolate reductase assessed as inhibition constant by UV-Vis spectra based Benesi Hilebrand equation analysis
T1 sequence (P00374 whole entry): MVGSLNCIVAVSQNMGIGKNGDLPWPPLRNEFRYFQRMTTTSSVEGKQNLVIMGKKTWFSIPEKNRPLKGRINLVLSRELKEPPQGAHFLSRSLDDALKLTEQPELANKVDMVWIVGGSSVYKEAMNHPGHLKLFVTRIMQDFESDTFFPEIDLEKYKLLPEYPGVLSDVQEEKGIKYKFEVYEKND

C6 [7] = assay: Cell cycle arrest in rat C6 cells assessed as cell population at G0/G1 phase measured after 24 hrs by propidium iodide staining based flow cytometry analysis; type: functional
[8] = read-out: pLC50 (the source's name) (converted)
[9] = read-out: LC50 (the source's name)

## O=C(OC[C@@H]1CO1)c1cccc2c(=O)c3ccccc3[nH]c12
HL-60(TB)
  GI50: 1290 nM
  TGI: 3310 nM
HL-60(TB); [8]
  CC50: 8510 nM
K562 [1]
  GI50: 2190 nM
  CC50: > 100000 nM
  TGI: > 100000 nM
MOLT-4 [2]; read-out: GI50
  GI50: 280 nM
MOLT-4 [2]; [9]
  CC50: > 100000 nM
MOLT-4 [2]; read-out: pGI50 (converted)
  GI50: 288 nM
MOLT-4 [2]; [8]
  CC50: > 100000 nM
MOLT-4 [2]
  TGI: 2340 nM
RPMI-8226
  GI50: 1950 nM
  CC50: > 100000 nM
  TGI: 6610 nM
HOP-92
  GI50: 2040 nM
  CC50: > 100000 nM
  TGI: 5250 nM
NCI-H23
  GI50: 1410 nM
  CC50: > 100000 nM
  TGI: 4470 nM
HCC 2998
  GI50: 1510 nM
  CC50: 7760 nM
  TGI: 3470 nM
HCT-15
  GI50: 1660 nM
  CC50: > 100000 nM
  TGI: 5250 nM
KM12
  GI50: 2190 nM
  CC50: > 100000 nM
  TGI: 7080 nM
M14
  GI50: 1660 nM
  CC50: 9120 nM
  TGI: 3890 nM
MDA-MB-435
  GI50: 1620 nM
  CC50: 6610 nM
  TGI: 3240 nM
SK-MEL-28
  GI50: 2400 nM
  CC50: > 100000 nM
  TGI: 5750 nM
SK-MEL-5
  GI50: 1510 nM
  CC50: 5500 nM
  TGI: 2880 nM
OVCAR-3
  GI50: 2290 nM
  CC50: 51300 nM
  TGI: 7240 nM
OVCAR-4
  GI50: 2400 nM
  CC50: > 100000 nM
  TGI: 7940 nM
ACHN; read-out: GI50
  GI50: 890 nM
ACHN; [9]
  CC50: > 100000 nM
ACHN; read-out: pGI50 (converted)
  GI50: 891 nM
ACHN; [8]
  CC50: > 100000 nM
ACHN
  TGI: 3890 nM
SN12C
  GI50: 1820 nM
  CC50: 41700 nM
  TGI: 7080 nM
MCF7; read-out: GI50
  GI50: 380 nM
MCF7; [9]
  CC50: > 100000 nM
MCF7; read-out: pGI50 (converted)
  GI50: 389 nM
MCF7; [8]
  CC50: > 100000 nM
MCF7
  TGI: 2950 nM
MDA-MB-231
  GI50: 2090 nM
  CC50: > 100000 nM
  TGI: 5250 nM
Hs-578T
  GI50: 2040 nM
  CC50: > 100000 nM
  TGI: 5890 nM
MDA-MB-468
  GI50: 1820 nM
  CC50: 7940 nM
  TGI: 3800 nM
K562 [3]
  inhibition of growth at 10 µM: 95%
MOLT-4 [4]
  inhibition of growth at 10 µM: 99%
NCI-H460
  growth inhibition (GI): 100%
OVCAR-5
  inhibition of growth at 10 µM: 100%
HT-29
  inhibition of growth at 10 µM: 100%
C6 [5]
  Activity: 85.53%
C6 [6]
  inhibition: Active
Dihydrofolate reductase
  Ki: 92 nM
C6 [7]
  Activity: inactive

## O=c1c2ccccc2n(CC2CO2)c2ccccc12 (racemic)
HL-60(TB)
  GI50: 204 nM
  TGI: 490 nM
K562 [1]
  GI50: 214 nM
  CC50: > 100000 nM
  TGI: > 100000 nM
MOLT-4 [2]; read-out: GI50
  GI50: 40 nM
MOLT-4 [2]; [9]
  CC50: > 100000 nM
MOLT-4 [2]; read-out: pGI50 (converted)
  GI50: 41.7 nM
MOLT-4 [2]; [8]
  CC50: > 100000 nM
MOLT-4 [2]
  TGI: 316 nM
RPMI-8226
  GI50: 302 nM
  CC50: > 100000 nM
  TGI: 1100 nM
HOP-92
  GI50: 324 nM
  CC50: > 100000 nM
  TGI: 3890 nM
NCI-H23
  GI50: 295 nM
  CC50: 57500 nM
  TGI: 1290 nM
HCC 2998
  GI50: 275 nM
  CC50: 10000 nM
  TGI: 1020 nM
HCT-15
  GI50: 295 nM
  CC50: > 100000 nM
  TGI: 4570 nM
KM12
  GI50: 269 nM
  CC50: 7760 nM
  TGI: 977 nM
M14
  GI50: 331 nM
  CC50: 6170 nM
  TGI: 1510 nM
MDA-MB-435
  GI50: 282 nM
  CC50: 4680 nM
  TGI: 1230 nM
SK-MEL-28
  GI50: 407 nM
  CC50: 11000 nM
  TGI: 1950 nM
SK-MEL-5
  GI50: 209 nM
  CC50: 1120 nM
  TGI: 468 nM
OVCAR-3
  GI50: 288 nM
  CC50: > 100000 nM
  TGI: 1510 nM
OVCAR-4
  GI50: 813 nM
  CC50: > 100000 nM
  TGI: 3980 nM
ACHN; read-out: GI50
  GI50: 90 nM
ACHN; [9]
  CC50: 790 nM
ACHN; read-out: pGI50 (converted)
  GI50: 95.5 nM
ACHN; [8]
  CC50: 794 nM
ACHN
  TGI: 282 nM
SN12C
  GI50: 229 nM
  CC50: 6170 nM
  TGI: 1200 nM
MCF7; read-out: GI50
  GI50: 50 nM
MCF7; [9]
  CC50: > 100000 nM
MCF7; read-out: pGI50 (converted)
  GI50: 55 nM
MCF7; [8]
  CC50: > 100000 nM
MCF7
  TGI: 741 nM
MDA-MB-231
  GI50: 631 nM
  CC50: > 100000 nM
  TGI: 3310 nM
Hs-578T
  GI50: 575 nM
  CC50: > 100000 nM
  TGI: 3890 nM
MDA-MB-468
  GI50: 1200 nM
  CC50: 7940 nM
  TGI: 3090 nM
K562 [3]
  inhibition of growth at 10 µM: 92%
MOLT-4 [4]
  inhibition of growth at 10 µM: 100%
NCI-H460
  growth inhibition (GI): 100%
OVCAR-5
  inhibition of growth at 10 µM: 100%
HT-29
  inhibition of growth at 10 µM: 100%
C6 [5]
  Activity: 16 - 18%
C6 [6]
  inhibition: Active
Dihydrofolate reductase
  Ki: 1600 nM
C6 [7]
  Activity: inactive
